The target in test [1] is T1, hASIC1a (Homo sapiens, UniProt P78348).
T1 sequence (P78348 1-528): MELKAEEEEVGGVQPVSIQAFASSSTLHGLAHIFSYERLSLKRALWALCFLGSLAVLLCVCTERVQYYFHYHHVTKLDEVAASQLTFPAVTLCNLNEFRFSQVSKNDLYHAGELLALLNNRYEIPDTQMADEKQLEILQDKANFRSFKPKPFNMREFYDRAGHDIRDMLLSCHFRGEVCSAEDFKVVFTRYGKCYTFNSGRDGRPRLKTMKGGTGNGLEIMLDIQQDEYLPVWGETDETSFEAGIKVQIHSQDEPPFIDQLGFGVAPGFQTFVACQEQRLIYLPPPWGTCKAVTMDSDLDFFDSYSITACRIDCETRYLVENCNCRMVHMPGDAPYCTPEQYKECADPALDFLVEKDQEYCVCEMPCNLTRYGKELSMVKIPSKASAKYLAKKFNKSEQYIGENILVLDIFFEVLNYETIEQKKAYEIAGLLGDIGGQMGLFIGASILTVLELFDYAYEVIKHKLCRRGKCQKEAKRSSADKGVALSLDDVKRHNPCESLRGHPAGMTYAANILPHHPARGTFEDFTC
In words: cell-based. Further details: host or cells: CHO (tetracycline-inducible). The following applies: pH 6.5 agonist, QPatch 48 single hole; for IC50: 2 min pre-incubation. Here is the method: (§1) CHO hASIC1a cells were cultured according to vendor instructions (B-SYS GmbH) and HEK cells using standard in-house methods. Both cell lines were harvested using optimized protocols and re-suspended in serum-free media (Gibco CHO-S-SFM from Thermo Fisher Scientific for CHO cells, and Ex-Cell 302 from Merck Sigma-Aldrich for HEK cells) to obtain a suspension of cells with smooth membranes and little debris, before transfer to the automated cell hotel consisting of a 60 ml plastic container (Sophion SB2050) and a magnetic stir bar to prevent cell clumping. An aliquot of cells is then aspirated into a 1 ml microcentrifuge tube and spun down (typically 150 g for 2.5 min) and the supernatant discarded before a user-defined volume of external solution is added by the robot and the cells re-suspended to achieve the desired final cell suspension density before application to primed QPlates. Cell capture, sealing and whole-cell access was achieved using optimized QPatch protocols before currents were recorded using a holding potential of −60 mV. […] Cells were washed three times with external pH 7.3 solution (5 μl) between applications of activating acidic solution to establish a stable ASIC1a current baseline. […] Each concentration of reference compound was applied to each cell before (i.e., during each pH 7.3 application period) and during each pH stimulus (IC50 mode). Thus, each concentration of test compound was pre-incubated with cells for at least 2 min before, and then during each acidic solution challenge, before wash-off in a neutral pH 7.3 solution that contained the next concentration of the same compound. Cells were allowed at least 2 min between applications of acidic solution to enable ASIC1a receptors to recover from desensitization.
(§2) Concentration-response xC50 curves from Patchliner and QPatch 48 experiments were calculated by plotting %inhibition (antagonists) or activation (pH) data against concentration in Prism software (GraphPad), using the variable sigmoidal dose-response function to fit the Hill equation with theoretical minimum block of 0% and maximum block of 100% and a free constant for Hill slope.
In addition, this protocol is designed to avoid tachyphylaxis associated with a more acidic pH stimulus, and it allows the development of a ligand-gated ASIC1a channel assay that can distinguish between agonists, partial agonists and antagonists. […] Compounds were tested using the cumulative concentration-response assay format shown in Figure 5A, which includes a 2 min pre-incubation period for each concentration to allow test samples to reach and equilibrate with their binding site(s) in the pore or large extracellular binding domain of ASIC1 receptor trimers. Agonist effects can also be detected during this period as membrane current data is recorded after every liquid addition. […] Mean inhibition data for each test sample is plotted against Log[compound] and fit with a concentration-response function.

The test system of test [2] is ASIC1a. Further details: method as in Nagaeva et al., 2016. The following applies: ref Nagaeva et al., 2016; cited from earlier work.
Test [3] relates to "ASIC1-like" pH-activated currents in rat dorsal root ganglion neurons. Further details: method as in Dubé et al., 2005. As to conditions: ref Dubé et al., 2005, read-out: Literature IC50; cited from earlier work.
Test [4] concerns the target T1, hASIC1a. Set-up: host or cells: CHO. The following applies: ref Diochot et al., 2012, cited from earlier work.
In test [5] the target is T1, hASIC1a. Kind of test: QPatch 48 APC, CHO hASIC1a, multi-hole (10 hole X-plate) recordings. Format: cell-based. Further details: host or cells: CHO (tetracycline-inducible). Here is the method:
as §1, §2
Before employing a more efficient multi-hole assay it is important to establish that this variant of the APC whole-cell recording format returns the same biophysics and pharmacology as single cell recordings. To this end we ran some of the reference compounds detailed above in 10 hole “X-plate” mode on the QPatch 48.
In general terms: The patch-clamp technique gives a direct electrical read-out from membranes.

Test [6] deals with TRPV1 receptor channels. Further details: method as in Diochot et al., 2012. As to conditions: ref Diochot et al., 2012; cited from earlier work.
Test [7] has as its system endogenous proton-activated currents in HEK cells. Kind of test: cells. Format: cell-based, human. As to conditions: HEK cells. Here is the method:
as §1
as §2, with “slope. Inward current amplitudes were compared to the response to a control pH application (typically pH 6.5) prior to antagonist application or excitation by solutions of different pH to enable calculation of %inhibition or %activation for each cell.” for “slope.”
To quickly confirm a previous publication that HEK cells express endogenous ASIC1a receptor channels and assess the suitability of this cell system for drug discovery screening on APC platforms, we utilized the medium throughput QPatch 48 device. The QPatch uses 48 well microfluidic planar borosilicate chips and coated titanium pipette tips to make whole-cell recordings and sequentially apply small liquid volumes to enable rapid activation followed by slower deactivation (wash-off) of ligand-gated ionotropic responses. HEK cells were voltage-clamped at −60 mV and maintained in external solution at pH 7.4 to avoid steady-state desensitization of ASIC1 receptor channels. Cells were stimulated by external solutions with pH values ranging between 7.0 and 5.5 that evoked rapidly activating inward currents, followed by wash-off in pH 7.4 solution.

Test [8] relates to rat ASIC1a. Set-up: method as in Diochot et al., 2012. As to conditions: ref Diochot et al., 2012, read-out: IC50 potency for the rat ortholog; cited from earlier work.

Values joined by “and” are separate entries in the source; they are usually repeats but may differ in a detail not shown here. Identical values can stand only once. Like-named read-outs stand apart in the source and are kept apart here. Bridges are numbered along the chain shown (N, C = ends). Where no end group is shown, it is not given here.

With `NC12CC3CC(CC(C3)C1)C2` [Amantadine], the IC50 in test [1] (read-out: IC50 potency) was 510000 nM. Also, the Hill slope – broadly, a measure of the steepness of the concentration-response curve – in test [1] stood at 0.9.

As for `CC12CC3CC(C)(C1)CC(N)(C3)C2` [Memantine], in test [1] (read-out: IC50 potency), the IC50 came to 315000 nM. This compound came in with a Hill slope in test [1] of 1.1. The “Literature inhibition at 500 μM” value in test [2] is 31% at 500 μM.

Turning to `CC(C)C1c2cc(C3CC3c3ccc4cc(C(=N)N)ccc4c3)ccc2CCN1C` (centres unmarked) [A-317567], the IC50 in test [1] (read-out: IC50 potency) is 660 nM; in test [3], 2000 nM. For the same compound, the Hill slope in test [1] was found to be 0.9.

As for “LKCYQHGKVVTCHRDMKFCYHNIGMPFRNLKLILQGCSSSCSETENNKCCSTDRCNK (disulfide 3-19, 12-37, 41-49, 50-55) [Mambalgin-3]”, the IC50 in test [4] (read-out: Literature IC50) was 127 nM; in test [1] (IC50 potency), 160 nM; in test [5] it was 160 nM; in test [7] (pH 6.5 activation, QPatch 48, read-out: cumulative IC50), 119 nM; in test [8], 17 to 55 nM. Moreover, in test [1], the Hill slope turned out to be 1.8. Moreover, the “Hill slope (Hn)” value in test [5] (multi-hole recordings, QPatch 48) was found to be 1.80. Also, the “inhibition of TRPV1 receptor channels” value in test [6] is “does not inhibit”. The “block of endogenous proton-activated currents” value in test [7] (300 nM) was approximately 75%. Also, in test [7], the “potentiation of endogenous pH-evoked responses” value is on record as “no evidence for such modulation”.

For “Mambalgin-1 (LKCYQHGKVVTCHRDMKFCYHNTGMPFRNLKLILQGCSSSCSETENNKCCSTDRCNK; ends and bridges not checked; cysteine pairing not given here; UniProt P0DKR6 22-78, looked up) [snake toxin differing from Mambalgin-3 at one non-critical amino acid residue]”, the IC50 in test [4] (Sun et al., 2018, read-out: quoted values against human ASIC1a channels) is 127 nM and 197 nM.

On to `N.N.N.N.N.N.N.N.N.N.N.N.N.N.[Cl-].[Cl-].[Cl-].[Cl-].[Cl-].[Cl-].[O-2].[O-2].[Ru+3].[Ru+3].[Ru+4]` [Ruthenium Red], for which the “inhibition of amplitude of currents activated by pH 6.5” value in test [7] (1 μM Ruthenium Red) is listed as 12 ± 7%.

The record behind these values is publication PMC9629855, “Development of ASIC1a ligand-gated ion channel drug screening assays across multiple automated patch clamp platforms” (Frontiers in Molecular Neuroscience, 2022).
